Test system: lung ILC2s
Assay: Flow cytometry of proliferation, transcription factor and signalling markers in lung ILC2s
Format: cell-based, mouse
Excerpt: FIGS. 5A-5F: Cholinergic signal attenuates ILC2 proliferation and GATA3 expression. (FIG. 5A) Mean fluorescence intensity of Ki67 and percentage of Ki67+ cells in isolated lung ILC2s, stimulated with IL-33 in the absence and presence of α7nAChR. (FIG. 5B) Mean fluorescence intensity of GATA3 in isolated lung ILC2s, stimulated with IL-33 in the absence and presence of α7nAChR. One representative experiment of two is shown (n=5; Student's t test *, p<0.05; **, p<0.01; ***p<0.001). […] FACS-purified ILC2s from WT mice challenged with rm-IL-33 with or without α7nAChR agonist as described in FIG. 3A were quantified by NanoString nCounter technology. Data range from −1 to +1 for the most reduced and most increased gene expression, respectively. (FIG. 5D) Expression of NF-κB p65 in isolated lung ILC2s from mice challenged with IL-33 with (dotted line) or without (thick line) α7nAChR agonist. The level of isotype-matched stain control is shown as a gray-filled histogram. (FIG. 5E) Expression of phosphorylated IKKα/β (Ser176/180) in isolated lung ILC2s stimulated with IL-33, with (dotted line) or without (thick line) α7nAChR agonist for 24 hours. The level of isotype-matched stain control is shown as a gray-filled histogram. (FIG. 5F) Mean fluorescence intensity of phosphorylated IKKα/β with or without α7nAChR agonist.
FIGS. 9A-9C: Effect of α7nAChR agonist on some marker expressions by ILC2s. A cohort of BALB/cByJ mice were intranasally challenged with rm-IL-33 (0.5 μg) with or without α7nAChR agonist (125 μg) for three consecutive days. Histogram and MFI of CD25 (FIG. 9A), CD127 (FIG. 9B) and ST2 (FIG. 9C) in isolated lung ILC2s. Data are representative of at least two independent experiments and are presented as means±SEM (n=4; Student's t test *, p<0.05).
Biotinylated anti-mouse lineage (CD3e (145-2C11), CD45R (RA3-3B2), Gr-1 (RB6-8C5), CD11c (N418), CD11b (M1/70), Ter119 (TER-119), NK1.1 (PK136), TCR-β (H57-597), TCR-γδ (GL3), and FcεRIα (MAR-1), Streptavidin-FITC, FITC anti-mouse CD3 (145-2C11), BV510 anti-mouse CD4 (RM4-5), APC-Cy7 anti-mouse CD25 (PC61), PE anti-mouse CD25 (PC61), BV421 anti-mouse CD25 (PC61), BV510 anti-mouse CD90.2 (53-2.1), APC anti-mouse CD127 (A7R34), PE-Cy7 anti-mouse CD127 (A7R34), FITC anti-mouse CD45 (30F-11), PE/Cy7 anti-mouse CD45 (30-F11), PE anti-mouse IL-5 (TRFK5), BV421 anti-mouse GATA3 (16E10A23), 7-AAD Viability staining solution, purchased from BioLegend (San Diego, Calif.). PE anti-mouse ST2 (IL-33R, RMST2-2), PerCP-eFluor710 anti-Mouse ST2 (RMST2-2), Streptavidin APC-eFluor780, Alexa Fluor647 labeled anti-IL-4 (clone 11B11), eFluor 450 anti-mouse CD45 (30F-11), eFluor450 anti-CD44 (clone IM7), eFluor-660 anti-mouse Ki-67 (SollA15), PE/Cy7 anti-mouse IL-13 (eBio13A), anti-mouse BCL-2 (10C4), were purchased from eBioscience. Alexa Fluor 488 anti-mouse p65-NF-κB (532301) was purchased from R&D Systems (dilution 1:50). Alexa Fluor 647 conjugated α-bungarotoxin (Invitrogen, San Diego, Calif.). PE anti-mouse Phospho-IKKα/β (Ser 176/180) (16A6) was purchased from Cell Signaling Technology (dilution 1:50). PE anti-rat α7nAChR (319) was purchased from Santa Cruz Biotechnology (dilution 1:50). This antibody has been used to identify this receptor previously in several studies^69. Lineage marker antibodies were used at the dilution of 1:400, unless mentioned otherwise other antibodies were used at the dilution of 1:200.
Intracellular staining was performed using BD Cytofix/Cytoperm kit (BD Bioscience, San Jose, Calif.) according to the manufacturer's instructions. For analysis of GATA3 and Ki-67 expression, freshly isolated cells were fixed and permeabilized using Fixation/Permeabilization buffer kit (eBioscience) according to the manufacturer's instructions and as previously described^70.

COc1ccc(/C=C2\CCCN=C2c2cccnc2)c(OC)c1 [GTS-21, 3-[(3E)-3-[(2,4-dimethoxyphenyl)methylidene]-5,6-dihydro-4H-pyridin-2-yl]pyridine]
expression of anti-apoptotic factor Bcl-2 on ILC2s (in vivo data): unaffected
GATA-3 expression in ILC2s (isolated lung ILC2s, IL-33): significantly inhibits
proliferation rate of pulmonary ILC2s (Ki-67 levels) (isolated lung ILC2s, IL-33): significantly decreased
NF-κB p65 expression in ILC2s (lung ILC2s from mice challenged with IL-33): reduced
phosphorylated IKKα/β (Ser176/180) expression in ILC2s (lung ILC2s stimulated with IL-33, 24 hours): reduced

Source: patent US20190247376A1, “NICOTINIC ACETYLCHOLINE RECEPTOR AGONIST ATTENUATES ILC2-DEPENDENT AIRWAY HYPERREACTIVITY” (University of Southern California, priority 2016, published 2019)
